For assay [1], the target named is T1, Human HDAC8 (Homo sapiens, UniProt Q9BY41).
T1 construct: full length with C-terminal His tag, MW=42.6 kDa; His (C); host or cells: baculovirus expression system
T1 sequence (Q9BY41 1-377): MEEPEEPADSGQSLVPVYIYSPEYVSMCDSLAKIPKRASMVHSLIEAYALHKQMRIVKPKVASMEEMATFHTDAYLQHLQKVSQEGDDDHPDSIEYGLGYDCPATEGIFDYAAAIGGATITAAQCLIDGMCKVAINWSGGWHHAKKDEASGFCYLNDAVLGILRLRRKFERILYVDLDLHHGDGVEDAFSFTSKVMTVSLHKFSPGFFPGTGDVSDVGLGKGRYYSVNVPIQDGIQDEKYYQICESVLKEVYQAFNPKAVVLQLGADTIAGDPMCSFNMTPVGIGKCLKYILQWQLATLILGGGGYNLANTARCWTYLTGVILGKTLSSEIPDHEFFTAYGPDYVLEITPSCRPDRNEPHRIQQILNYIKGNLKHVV
The assay is described as follows: HDAC8 biochemical assay, AMC-labeled peptide substrate. Particulars: read-out: HDAC Isoform IC50 (nM) 8. As to the method: (§1) Activity against all zinc-dependent HDACs 1 to 11 was assessed by using an acetylated AMC-labeled peptide substrate. The substrate RHKK(Ac)AMC was used for HDAC1, HDAC2, HDAC3, HDAC6 and HDAC10; the substrate used for HDAC8 was RHK(Ac)K(Ac)AMC. Activity against the class IIa HDACs (HDAC4, 5, 7, 9) and HDAC11 was determined using a class IIa-specific substrate, BOC-Lys(trifluoroacetyl)-AMC (“Trifluoroacetyl Lysine”; see Lahm et al, 2007, PNAS, 104, 17335-17340). All assays were based on the AMC-labeled substrate and developer combination.
(§2) The protocol involved a two-step reaction: first, the substrate with the acetylated lysine side chain is incubated with a sample containing HDAC activity, to produce the deacetylated products, which are then digested in the second step by the addition of developer to produce the fluorescent signal proportional to the amount of deacetylated substrates.
Human HDAC8 (GenBankAccession No. NM_018486), full length with C-terminal His tag, MW=42.6 kDa, expressed in a baculovirus expression system.
(§3) Assay Buffer: 50 mM Tris-HCl, pH8.0, 137 mM NaCl, 2.7 mM KCl, 1 mM MgC2. Before use, 1 mg/mL BSA and DMSO are added.
HDAC8: 1 ng/ul HDAC8 and 100 µM HDAC8 substrate are in the reaction buffer with 1% DMSO final. Incubate for 2 hours at 30° C.
(§4) Stage 1: Deacetylation of substrate by incubation of HDAC enzymes with compounds
(§5) Stage 2: Development by addition of Developer to digest the deacetylated substrate, and generate the fluorescent colour; Detection: 360/460 Ex/Em

Assay [2] concerns the target T2, Human HDAC11 (Homo sapiens, UniProt Q96DB2).
T2 construct: Human HDAC11 (full length); His (N); host or cells: baculovirus expression system
T2 sequence (Q96DB2 1-347): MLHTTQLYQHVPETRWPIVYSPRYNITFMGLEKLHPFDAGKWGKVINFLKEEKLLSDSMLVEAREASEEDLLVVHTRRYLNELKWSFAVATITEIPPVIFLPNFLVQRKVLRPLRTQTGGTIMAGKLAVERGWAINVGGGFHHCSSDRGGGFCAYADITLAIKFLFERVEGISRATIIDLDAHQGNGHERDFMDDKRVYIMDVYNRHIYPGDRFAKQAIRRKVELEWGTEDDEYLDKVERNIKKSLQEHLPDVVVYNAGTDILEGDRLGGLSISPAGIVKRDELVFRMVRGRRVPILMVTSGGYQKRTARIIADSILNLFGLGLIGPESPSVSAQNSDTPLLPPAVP
The assay is described as follows: HDAC11 biochemical assay, class IIa-specific substrate. Particulars: read-out: HDAC Isoform IC50 (nM) 11. As to the method:
as §1, §2
Human HDAC11 (full length) (GenBank Accession No. NM_024827) with N-terminal His tag, MW=42.9 kDa, expressed in baculovirus expression system.
as §3
HDAC11: 5 ng/ul HDAC11 and 50 μMHDAC substrate are in the reaction buffer with 1% DMSO final. Incubate for 30 minutes at 30° C.
as §4, §5

The target of assay [3] is T3, Human HDAC4 (Homo sapiens, UniProt P56524).
T3 construct: amino acids 627-1085 with N-terminal GST tag; GST (N); host or cells: baculovirus expression system
T3 sequence (P56524 627-1084 limits assumed): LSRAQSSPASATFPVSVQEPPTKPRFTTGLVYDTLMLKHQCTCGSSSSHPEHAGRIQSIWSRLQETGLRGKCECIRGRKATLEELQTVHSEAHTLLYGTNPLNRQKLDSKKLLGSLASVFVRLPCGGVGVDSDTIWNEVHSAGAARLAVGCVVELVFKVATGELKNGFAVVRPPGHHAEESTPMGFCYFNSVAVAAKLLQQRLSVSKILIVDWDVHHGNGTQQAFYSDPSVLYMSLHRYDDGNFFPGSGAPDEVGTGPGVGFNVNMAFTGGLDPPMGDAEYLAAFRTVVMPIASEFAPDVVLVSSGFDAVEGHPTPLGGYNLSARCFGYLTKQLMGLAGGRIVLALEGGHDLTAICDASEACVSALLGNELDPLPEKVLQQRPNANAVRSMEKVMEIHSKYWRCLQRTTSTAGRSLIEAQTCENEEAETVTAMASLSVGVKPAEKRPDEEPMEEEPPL
Description: HDAC4 biochemical assay, class IIa-specific substrate. Particulars: read-out: HDAC Isoform IC50 (nM) 4. Put shortly:
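Two-step fluorogenic read-out: deacetylated BOC-Lys(trifluoroacetyl)-AMC (50 μM) was digested by developer and measured at Ex/Em 360/460. Deacetylation by 0.004 ng/ul HDAC4 (aa 627-1085, N-terminal GST) ran 30 min at room temperature, pH 8.0 Tris buffer, 1 mg/mL BSA, 1% DMSO.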

In assay [4] the target is T4, Human HDAC1 (Homo sapiens, UniProt Q13547).
T4 construct: full length with C-terminal His-tag and C-terminal FLAG-tag; His (C); FLAG (C); host or cells: baculovirus expression system
T4 sequence (Q13547 whole entry): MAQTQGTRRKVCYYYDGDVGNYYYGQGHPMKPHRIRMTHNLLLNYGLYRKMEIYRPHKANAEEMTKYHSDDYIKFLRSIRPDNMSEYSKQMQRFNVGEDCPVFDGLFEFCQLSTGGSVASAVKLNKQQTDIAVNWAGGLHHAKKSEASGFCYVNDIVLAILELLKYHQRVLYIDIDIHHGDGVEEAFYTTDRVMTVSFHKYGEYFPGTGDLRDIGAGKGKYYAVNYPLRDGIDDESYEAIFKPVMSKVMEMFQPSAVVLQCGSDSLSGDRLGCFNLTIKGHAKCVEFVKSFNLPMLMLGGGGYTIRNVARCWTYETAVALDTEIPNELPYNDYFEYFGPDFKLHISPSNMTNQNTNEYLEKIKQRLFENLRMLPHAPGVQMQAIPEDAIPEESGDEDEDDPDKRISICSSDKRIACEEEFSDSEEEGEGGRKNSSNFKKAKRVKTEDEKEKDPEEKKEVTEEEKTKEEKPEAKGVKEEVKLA
Description: HDAC1 biochemical assay, AMC-labeled peptide substrate. Particulars: read-out: HDAC Isoform IC50 (nM) 1. The method, boiled down: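 Two-step fluorogenic read: HDAC1 deacetylates 50 μM acetyl-lysine AMC peptide RHKK(Ac)AMC for 1 h at 30° C (pH 8.0, 1% DMSO, with compound), then developer digests the product for fluorescence at Ex/Em 360/460. Enzyme is full-length human, His/FLAG-tagged, insect-cell expressed, at 0.3 ng/ul.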

In assay [5] the target is T5, Human HDAC9 (Homo sapiens, UniProt Q9UKV0).
T5 construct: amino acids 604-1066 with C-terminal His tag; His (C); host or cells: baculovirus expression system
T5 sequence (Q9UKV0 604-1066 isoform Q9UKV0-5): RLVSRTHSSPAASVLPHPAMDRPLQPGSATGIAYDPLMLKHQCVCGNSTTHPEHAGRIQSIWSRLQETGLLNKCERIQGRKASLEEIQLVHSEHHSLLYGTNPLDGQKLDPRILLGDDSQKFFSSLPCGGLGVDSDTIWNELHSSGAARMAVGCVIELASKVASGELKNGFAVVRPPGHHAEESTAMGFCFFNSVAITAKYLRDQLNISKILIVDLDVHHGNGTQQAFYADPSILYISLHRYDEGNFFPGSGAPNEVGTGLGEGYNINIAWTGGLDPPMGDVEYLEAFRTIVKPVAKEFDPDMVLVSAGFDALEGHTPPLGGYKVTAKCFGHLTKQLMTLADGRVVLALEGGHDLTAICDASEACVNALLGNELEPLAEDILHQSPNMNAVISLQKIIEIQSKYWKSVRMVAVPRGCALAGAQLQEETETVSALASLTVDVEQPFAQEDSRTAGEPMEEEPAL
Description: HDAC9 biochemical assay, class IIa-specific substrate. Particulars: read-out: HDAC Isoform IC50 (nM) 9. The method, boiled down:
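HDAC9 residues 604-1066 (C-terminal His tag, baculovirus-expressed) at 0.06 ng/ul with 50 μM class IIa substrate Boc-Lys(trifluoroacetyl)-AMC in Tris-HCl pH 8.0 buffer with BSA and 1% DMSO. 30 min at room temperature, then developer added; fluorescence read at 360/460 nm Ex/Em.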

Assay [6] concerns the target T6, Complex of human HDAC3 and human NCOR2 (Homo sapiens, UniProt O15379).
T6 construct: full length with C-terminal His tag, MW=49.7 kDa; His (C); host or cells: baculovirus expression system (co-expressed)
Description: HDAC3 biochemical assay, AMC-labeled peptide substrate. Particulars: read-out: HDAC Isoform IC50 (nM) 3. The protocol:
as §1, §2
Complex of human HDAC3 (GenBank Accession No. NM_003883), full length with C-terminal His tag, MW=49.7 kDa, and human NCOR2 (amino acid 395-489) (GenBank Accession No. NM_006312), N-terminal GST tag, MW=37.6 kDa, co-expressed in baculovirus expression system.
as §3
HDAC3: 0.1 ng/ul HDAC3 and 50 μM HDAC substrate are in the reaction buffer with 1% DMSO final. Incubate for 1 hour at 30° C.
as §4, §5

Consider eleven compounds from US20210038607A1, “OXADIAZOLYLTHIOPHENE DERIVATIVES USEFUL AS HISTONE DEACETYLASE INHIBITORS” (Karus Therapeutics Limited, priority 2018, published 2021).

Some results are limits rather than exact numbers.

T6 sequence (O15379 whole entry): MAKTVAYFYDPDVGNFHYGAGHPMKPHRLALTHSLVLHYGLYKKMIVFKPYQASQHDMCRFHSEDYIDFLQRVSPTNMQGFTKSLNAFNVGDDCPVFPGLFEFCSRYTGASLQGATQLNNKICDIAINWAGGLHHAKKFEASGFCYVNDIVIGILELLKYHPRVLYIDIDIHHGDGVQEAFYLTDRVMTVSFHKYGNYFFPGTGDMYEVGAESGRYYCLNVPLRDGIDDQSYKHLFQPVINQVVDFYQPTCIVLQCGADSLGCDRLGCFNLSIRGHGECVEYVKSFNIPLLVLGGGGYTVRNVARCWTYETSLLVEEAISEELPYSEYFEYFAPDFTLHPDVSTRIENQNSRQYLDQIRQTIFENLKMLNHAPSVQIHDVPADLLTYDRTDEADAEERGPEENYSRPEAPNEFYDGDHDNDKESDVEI
T6 sequence (Q9Y618 395-489 partner limits assumed): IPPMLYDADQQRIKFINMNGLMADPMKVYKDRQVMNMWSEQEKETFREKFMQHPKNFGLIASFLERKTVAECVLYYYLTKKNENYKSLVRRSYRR

For the compound `Fc1ccnc(N(Cc2ccc(-c3noc(C(F)(F)F)n3)s2)c2cnccn2)c1` [Example AG, N-(4-Fluoropyridin-2-yl)-N-({5-[5-(trifluoromethyl)-1,2,4-oxadiazol-3-yl]thiophen-2-yl}methyl)pyrazin-2-amine], the IC50 in assay [1] is not above 10000 nM; in assay [2], more than 10000 nM; in assay [3], not above 10000 nM; in assay [4], more than 10000 nM; in assay [5], not above 10000 nM; in assay [6] it was more than 10000 nM.
Regarding `FC(F)(F)c1nc(-c2ccc(CN(c3cnccn3)c3ncccn3)s2)no1` [Example AS, N-(Pyrimidin-2-yl)-N-({5-[5-(trifluoromethyl)-1,2,4-oxadiazol-3-yl]thiophen-2-yl}methyl)pyrazin-2-amine], the IC50 was not above 10000 nM in assay [1]; more than 10000 nM in assay [2]; not above 10000 nM in assay [3]; more than 10000 nM in assay [4]; not above 10000 nM in assay [5]; more than 10000 nM in assay [6].
As to `FC(F)(F)c1nc(-c2ccc(CN(c3cnccn3)c3cnccn3)s2)no1` [Example BA, N-(Pyrazin-2-yl)-N-({5-[5-(trifluoromethyl)-1,2,4-oxadiazol-3-yl]thiophen-2-yl}methyl)pyrazin-2-amine], the IC50 in assay [1] was not above 10000 nM; in assay [2], more than 10000 nM; in assay [3], not above 1000 nM; in assay [4] it was more than 10000 nM; in assay [5] it was not above 10000 nM; in assay [6] it was more than 10000 nM.
`Cc1nccnc1N(Cc1ccc(-c2noc(C(F)(F)F)n2)s1)c1cnccn1` [Example BE, 3-Methyl-N-(pyrazin-2-yl)-N-({5-[5-(trifluoromethyl)-1,2,4-oxadiazol-3-yl]thiophen-2-yl}methyl)pyrazin-2-amine]: the IC50 in assay [1] is not above 10000 nM; in assay [2], more than 10000 nM; in assay [3] it was not above 500 nM; in assay [4] it was more than 10000 nM; in assay [5], not above 1000 nM; in assay [6], more than 10000 nM.
On to `COc1nccnc1N(Cc1ccc(-c2noc(C(F)(F)F)n2)s1)c1cnccn1` [Example BF, 3-Methoxy-N-(pyrazin-2-yl)-N-({5-[5-(trifluoromethyl)-1,2,4-oxadiazol-3-yl]thiophen-2-yl}methyl)pyrazin-2-amine], for which the IC50 is not above 10000 nM in assay [1]; more than 10000 nM in assay [2]; not above 10000 nM in assay [3]; more than 10000 nM in assay [4]; not above 10000 nM in assay [5]; more than 10000 nM in assay [6].
As to `Cc1cnc(N(Cc2ccc(-c3noc(C(F)(F)F)n3)s2)c2cnccn2)cn1` [Example BH, 5-Methyl-N-(pyrazin-2-yl)-N-({5-[5-(trifluoromethyl)-1,2,4-oxadiazol-3-yl]thiophen-2-yl}methyl)pyrazin-2-amine], the IC50 in assay [1] was not above 10000 nM; in assay [2], more than 10000 nM; in assay [3] it was not above 1000 nM; in assay [4], not above 10000 nM; in assay [5], not above 10000 nM; in assay [6], more than 10000 nM.
As to `COc1cnc(N(Cc2ccc(-c3noc(C(F)(F)F)n3)s2)c2cnccn2)cn1` [Example BI, 5-Methoxy-N-(pyrazin-2-yl)-N-({5-[5-(trifluoromethyl)-1,2,4-oxadiazol-3-yl]thiophen-2-yl}methyl)pyrazin-2-amine], the IC50 is not above 10000 nM in assay [1]; more than 10000 nM in assay [2]; not above 10000 nM in assay [3]; more than 10000 nM in assay [4]; not above 10000 nM in assay [5]; more than 10000 nM in assay [6].
In the case of `FC(F)(F)c1cnc(N(Cc2ccc(-c3noc(C(F)(F)F)n3)s2)c2cnccn2)cn1` [Example BK, N-(Pyrazin-2-yl)-5-(trifluoromethyl)-N-({5-[5-(trifluoromethyl)-1,2,4-oxadiazol-3-yl]thiophen-2-yl}methyl)pyrazin-2-amine], the IC50 in assay [1] was not above 10000 nM; in assay [2], more than 10000 nM; in assay [3], not above 10000 nM; in assay [4] it was more than 10000 nM; in assay [5] it was not above 10000 nM; in assay [6], more than 10000 nM.
`COc1cncc(N(Cc2ccc(-c3noc(C(F)(F)F)n3)s2)c2cc(C(F)(F)F)cnn2)n1` [Example EN, N-(6-Methoxypyrazin-2-yl)-5-(trifluoromethyl)-N-({5-[5-(trifluoromethyl)-1,2,4-oxadiazol-3-yl]thiophen-2-yl}methyl)pyridazin-3-amine]: the IC50 in assay [3] was not above 10000 nM; in assay [4], more than 10000 nM; in assay [5], more than 10000 nM.
Regarding `FC(F)(F)c1cnnc(N(Cc2ccc(-c3noc(C(F)(F)F)n3)s2)c2cccnn2)c1` [Example ER, N-(Pyridazin-3-yl)-5-(trifluoromethyl)-N-({5-[5-(trifluoromethyl)-1,2,4-oxadiazol-3-yl]thiophen-2-yl}methyl)pyridazin-3-amine], the IC50 in assay [3] is not above 10000 nM; in assay [4], more than 10000 nM; in assay [5], not above 10000 nM.
Consider `FC(F)(F)c1cnnc(N(Cc2ccc(-c3noc(C(F)(F)F)n3)s2)c2cc(C(F)(F)F)cnn2)c1` [Example EU, 5-(Trifluoromethyl)-N-({5-[5-(trifluoromethyl)-1,2,4-oxadiazol-3-yl]thiophen-2-yl}methyl)-N-[5-(trifluoromethyl)pyridazin-3-yl]pyridazin-3-amine], for which the IC50 is not above 10000 nM in assay [3], more than 10000 nM in assay [4] and more than 10000 nM in assay [5].
